# Results: article PMC11671014 (PLOS Pathogens, 2024)
# Several values for one entry are separate records, joined by “and”; a condition that tells them apart may be missing. Identical values can stand only once.
# Columns and labels:
# PfTyrRS [1] = biological target: T1, PfTyrRS (Plasmodium falciparum, UniProt Q8IAR7); assay: ATP consumption by PfTyrRS (Kinase Glo); type: biochemical; conditions: Inhibition of PfTyrRS (Kinase Glo) IC50, PfTyrRS 25 nM, ATP 10 μM, tyrosine 200 μM, cognate tRNA^Tyr 4.8 μM, 37°C 1 h
# T1 sequence (Q8IAR7 entry or part of it): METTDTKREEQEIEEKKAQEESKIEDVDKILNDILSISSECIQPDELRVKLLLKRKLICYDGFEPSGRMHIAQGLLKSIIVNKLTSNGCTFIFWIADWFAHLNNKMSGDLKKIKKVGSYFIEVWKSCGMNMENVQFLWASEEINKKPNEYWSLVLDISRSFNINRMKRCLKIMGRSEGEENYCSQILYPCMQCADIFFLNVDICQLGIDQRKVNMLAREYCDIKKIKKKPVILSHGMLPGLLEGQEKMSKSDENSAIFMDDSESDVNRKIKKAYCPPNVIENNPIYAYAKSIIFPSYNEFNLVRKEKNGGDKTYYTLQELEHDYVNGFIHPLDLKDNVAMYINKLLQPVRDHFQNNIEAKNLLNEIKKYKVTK
# Experimental: Consumption of ATP was measured using a luciferase-based assay as per the manufacturer’s instructions (Kinase-Glo Luminescent Kinase Assay, Promega).
# HCT116 = conditions: read-out: HCT116 IC50_72h; 72 h; ref [16]; cited from earlier work
# PfTyrRS [2] = biological target: T1, PfTyrRS; assay: Differential scanning fluorimetry (DSF) of PfTyrRS; type: binding
# Experimental: The effect on ML471 and analogues on the thermal stability of TyrRS enzymes was assayed as previously described. […] SYPRO Orange (Sigma-Aldrich; 5,000X concentrate in DMSO) was added to the reaction mixture at a final concentration of 5X. 25 μL of the sample was added into each well of a 96-well qPCR plate (Applied Biosystems). The plate was sealed and analysed using StepOnePlus Real-Time PCR system (Applied Biosystems). The samples were heated from 20°C to 90°C with a 1% continuous gradient. The thermal unfolding curve was plotted as the first derivative curve of the raw fluorescence values. The melting temperature (Tm), defined as the peak of the first derivative curve, was used to assess the thermal stability of protein-ligand complexes.
# [3] = tested on: P. falciparum (3D7, ring stage) cultures; conditions: read-out: P. falciparum 72-h IC50 (3D7); 3D7, 72 h exposure; ref [16]; cited from earlier work
smiles,measurement,setting,value
"Nc1ncnc2c1ncn2[C@@H]1O[C@H](COS(N)(=O)=O)[C@@H](O)[C@H]1O [AMS, adenosine 5’-monosulfamate, reference compound]",IC50,PfTyrRS [1],51700 nM and 52000 nM
same,IC50,HCT116,26 nM
same,Kd,PfTyrRS [2],1.3 nM
same,ΔTm at 50 µM,"PfTyrRS [2]; 2 h, read-out: PfTyrRS binding (DSF) Delta Tm",13.6 ± 0.7 °C
same,PfTyrRS Tm,"PfTyrRS [2]; with sulfamate, ATP, tyrosine and tRNA, apo 49.9 ± 0.6",63.5 ± 0.7 °C
same,IC50,[3],1.8 ± 0.6 nM
